According to US20120100361A1, “ANTISEPTIC COMPOSITION FOR ENGINEERING WOOD PRODUCTION, AND ENGINEERING WOOD” (SDS BIOTECH K.K., priority 2009, published 2012):

Key:
Trametes versicolor [1] = experiment: Test for antiseptic effects of preservative LVL (JIS K1571:2004); type: cell-based; conditions: phenol resin
Method: (§1) 1000 g of the phenol resin-based glue Deernol D-117 (manufactured by Oshika Corporation), 70 g of wheat flour and 100 g of calcium carbonate were mixed and well kneaded. A solution of each of the compounds of Example 1 and Comparative Example 1, 2 and 5 to 25 was added to the kneaded product so that the final concentrations of the compound in the wood become 150, 100, 50 and 25 g/m^3 and further kneaded. 18 g of the above kneaded product was applied onto each of the surface of glue line of the three Radiata pine veneer sheets having an area of 30 x 30 cm and thickness of 3 mm. After bonding the three sheets to each other, the sheets were subjected to cold pressing at room temperature for 20 minutes and the thermal pressure of 140° C. (10 kgf/cm^2) was applied to the sheets for two minutes to obtain the target LVL. Each of the prepared LVL was processed into the size of 20×20×9 mm to serve as a test sample.
(§2) The samples of the plywood and LVL prepared in Preparation Examples 2 and 3 were evaluated by the test for antiseptic effects for the drug pressure treatment according to JIS K1571:2004. The weather resistance operation and the test method for the antiseptic effect were performed according to the above test method.

Fomitopsis palustris [2] = experiment: as above; type: cell-based; conditions: phenol resin
Method: as §1, §2

Trametes versicolor [3] = experiment: Test for antiseptic effects of preservative plywood (JIS K1571:2004); type: cell-based; conditions: plywood, urea melamine resin, Trametes versicolor
Method: (§3) 1000 g of urea melamine resin (PWP-60, manufactured by Oshika Corporation) was added to 180 g of wheat flour and fully kneaded to thereby obtain a kneaded product. 8 g of ammonium chloride was added as a hardening agent to the kneaded product, and a solution of each of the compounds of Example 1 and Comparative Example 1, 2 and 5 to 25 was further added thereto so that the final concentrations of the compound in the wood become 150, 100, 50 and 25 g/m^3 and kneaded. 18 g of the above kneaded product was applied onto each of the bonding plane of the three red lauan veneer sheets having an area of 30 x 30 cm and thickness of 0.85 mm/2.4 mm/0.85 mm. After bonding the three sheets to each other, the sheets were subjected to cold pressing at room temperature for 20 minutes and the thermal pressure of 120° C. (10 kgf/cm^2) was applied to the sheets for two minutes to obtain the target plywood. Each of the prepared plywood was processed into the size of 20×20×4.1 mm to serve as a test sample.
as §2

Fomitopsis palustris [4] = experiment: as above; type: cell-based; conditions: plywood, urea melamine resin, Fomitopsis palustris
Method: as §3, §2

fungus cellar soil-bed [5] = experiment: Fungus cellar soil-bed test of preservative LVL (JIS K1571:2004); conditions: 25° C., grade 0 sound condition to 5 out of shape due to the decay
Method: as §1
The preservative LVL was prepared in the same manner in Preparation Example 3. Each of the prepared LVL was processed into the size of 9×9×100 mm to serve as a test sample.
(§4) The samples of the plywood and LVL prepared in Preparation Examples 4 and 5 were evaluated by the fungus cellar soil-bed test according to JIS K1571:2004. The weather resistance operation and the test method for the antiseptic effect were performed according to the above test method. The test was carried out for six months setting the test temperature to 25° C. (because the grade average of the decay damage of the non-treated test samples exceeded 2.5 in six months). […] The effect in the glue line treatment was actually investigated with respect to a number of existing antiseptics, and it was confirmed that only epoxyconazole is suitable for the glue line treatment at a low concentration.

[6] = Test for miscibility with a phenol resin glue; type: physicochemical; parameters: key to Phenol resin status after 60 minutes: ∘: No change; x: Obvious increase in the viscosity was seen and it seems impossible to apply the composition onto the veneer sheet; conditions: 10% (w/w) solution added to phenol resin glue Deernol D-117 kneaded product; viscosity change visually observed for 60 minutes
Method: The following compounds, which are known to have wood preservative activity, are dissolved in methyl ethylene triglycol to reach a concentration of 10% (w/w) to thereby obtain a solution of each of the compounds.
1000 g of phenol resin-based glue Deernol D-117 (manufactured by Oshika Corporation), 70 g of wheat flour and 100 g of calcium carbonate were mixed and well kneaded. Each of the solutions of Example 1 and Comparative Example 1 to 25 was added to 17 g of the kneaded product and mixed well together. The viscosity change of the glue was visually observed for 60 minutes. […] Although a number of documents listed as the prior art documents and the like teach that quaternary ammonium compounds can be applied to the glue line treatment, it is clear that those compounds have a problem for practical use (Comparative Examples 3 and 4). On the other hand, it was confirmed that the other compounds including that of Example has no problem from the viewpoint of compatibility.

fungus cellar soil-bed [7] = experiment: Fungus cellar soil-bed test of preservative plywood (JIS K1571:2004); conditions: plywood, six months, 25° C., grade 0 sound condition to 5 out of shape due to the decay
Method: as §3
The preservative plywood was prepared in the same manner in Preparation Example 2. Each of the prepared plywood was processed into the size of 8.9 x 8.9×100 mm to serve as a test sample.
as §4

[8] = treated amount 25 g/m^3, six months
[9] = treated amount 50 g/m^3, six months
[10] = treated amount 100 g/m^3, six months
[11] = treated amount 150 g/m^3, six months

| SMILES | average rate of decrease in weight (Trametes versicolor [1]; treated amount 25 g/m^3) | average rate of decrease in weight (Trametes versicolor [1]; treated amount 50 g/m^3) | average rate of decrease in weight (Trametes versicolor [1]; treated amount 100 g/m^3) | average rate of decrease in weight (Trametes versicolor [1]; treated amount 150 g/m^3) | average rate of decrease in weight (Fomitopsis palustris [2]; treated amount 25 g/m^3) | average rate of decrease in weight (Fomitopsis palustris [2]; treated amount 50 g/m^3) | average rate of decrease in weight (Fomitopsis palustris [2]; treated amount 100 g/m^3) | average rate of decrease in weight (Fomitopsis palustris [2]; treated amount 150 g/m^3) | average rate of decrease in weight (Trametes versicolor [3]; treated amount 25 g/m^3) | average rate of decrease in weight (Trametes versicolor [3]; treated amount 50 g/m^3) | average rate of decrease in weight (Trametes versicolor [3]; treated amount 100 g/m^3) | average rate of decrease in weight (Trametes versicolor [3]; treated amount 150 g/m^3) | average rate of decrease in weight (Fomitopsis palustris [4]; treated amount 25 g/m^3) | average rate of decrease in weight (Fomitopsis palustris [4]; treated amount 50 g/m^3) | average rate of decrease in weight (Fomitopsis palustris [4]; treated amount 100 g/m^3) | average rate of decrease in weight (Fomitopsis palustris [4]; treated amount 150 g/m^3) | Grade average of the decay damage of five test samples (fungus cellar soil-bed [5]; [8]) | Grade average of the decay damage of five test samples (fungus cellar soil-bed [5]; [9]) | Grade average of the decay damage of five test samples (fungus cellar soil-bed [5]; [10]) | Grade average of the decay damage of five test samples (fungus cellar soil-bed [5]; [11]) | other results |
| --- | --- | --- | --- | --- | --- | --- | --- | --- | --- | --- | --- | --- | --- | --- | --- | --- | --- | --- | --- | --- | --- |
| CO/C=C(/C(=O)OC)c1ccccc1Oc1cc(Oc2ccccc2C#N)ncn1 [Comparative Example 21, azoxystrobin] | X (The average rate of decrease in weight was 3% or more.) | X (The average rate of decrease in weight was 3% or more.) | X (The average rate of decrease in weight was 3% or more.) | X (The average rate of decrease in weight was 3% or more.) | X (The average rate of decrease in weight was 3% or more.) | X (The average rate of decrease in weight was 3% or more.) | X (The average rate of decrease in weight was 3% or more.) | X (The average rate of decrease in weight was 3% or more.) | X (The average rate of decrease in weight was 3% or more.) | X (The average rate of decrease in weight was 3% or more.) | X (The average rate of decrease in weight was 3% or more.) | X (The average rate of decrease in weight was 3% or more.) | X (The average rate of decrease in weight was 3% or more.) | X (The average rate of decrease in weight was 3% or more.) | X (The average rate of decrease in weight was 3% or more.) | X (The average rate of decrease in weight was 3% or more.) | 3.0 | 3.6 | 3.4 | 2.8 | Phenol resin status after 60 minutes [6]: ∘; Grade average of the decay damage of five test samples (fungus cellar soil-bed [7]; treated amount 25 g/m^3): 3.0; Grade average of the decay damage of five test samples (fungus cellar soil-bed [7]; treated amount 50 g/m^3): 3.0; Grade average of the decay damage of five test samples (fungus cellar soil-bed [7]; treated amount 100 g/m^3): 3.0; Grade average of the decay damage of five test samples (fungus cellar soil-bed [7]; treated amount 150 g/m^3): 2.8 |
| CCCCCCCCn1sccc1=O [Comparative Example 24, N-octylisothiazolin-3-one] | X (The average rate of decrease in weight was 3% or more.) | X (The average rate of decrease in weight was 3% or more.) | X (The average rate of decrease in weight was 3% or more.) | X (The average rate of decrease in weight was 3% or more.) | X (The average rate of decrease in weight was 3% or more.) | X (The average rate of decrease in weight was 3% or more.) | X (The average rate of decrease in weight was 3% or more.) | X (The average rate of decrease in weight was 3% or more.) | X (The average rate of decrease in weight was 3% or more.) | X (The average rate of decrease in weight was 3% or more.) | X (The average rate of decrease in weight was 3% or more.) | X (The average rate of decrease in weight was 3% or more.) | X (The average rate of decrease in weight was 3% or more.) | X (The average rate of decrease in weight was 3% or more.) | X (The average rate of decrease in weight was 3% or more.) | X (The average rate of decrease in weight was 3% or more.) | 3.0 | 3.4 | 3.0 | 3.2 | Phenol resin status after 60 minutes [6]: ∘; Grade average of the decay damage of five test samples (fungus cellar soil-bed [7]; treated amount 25 g/m^3): 2.8; Grade average of the decay damage of five test samples (fungus cellar soil-bed [7]; treated amount 50 g/m^3): 2.8; Grade average of the decay damage of five test samples (fungus cellar soil-bed [7]; treated amount 100 g/m^3): 2.8; Grade average of the decay damage of five test samples (fungus cellar soil-bed [7]; treated amount 150 g/m^3): 2.8 |
